Measured values: article PMC8187479, “Sugar phosphate activation of the stress sensor eIF2B” (Nature Communications, 2021)

What follows are compounds tested against T1, eIF2Bα (Homo sapiens, UniProt Q14232) (assay: MIDAS (mass spectrometry integrated with equilibrium dialysis) metabolite binding screen). Settings: MIDAS metabolite binding screen with eIF2Bα; sheet "eIF2Ba".
T1 construct: made in house; host or cells: E. coli BL21(DE3)
T1 sequence (Q14232 1-305): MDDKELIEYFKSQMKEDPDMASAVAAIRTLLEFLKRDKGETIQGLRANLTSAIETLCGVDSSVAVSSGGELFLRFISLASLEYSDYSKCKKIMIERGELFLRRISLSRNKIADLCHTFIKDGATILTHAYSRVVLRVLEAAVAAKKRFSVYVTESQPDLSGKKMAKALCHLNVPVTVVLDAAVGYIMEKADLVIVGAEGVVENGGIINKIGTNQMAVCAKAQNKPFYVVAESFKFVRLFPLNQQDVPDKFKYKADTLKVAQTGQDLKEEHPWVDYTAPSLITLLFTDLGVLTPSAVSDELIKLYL
Procedure, shortened: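 Hits called at Storey q < 0.1 on z-scores of PCA-corrected log2 fold change between protein and metabolite chambers, quantified by FIA-MS in triplicate.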

log2(corrected fold change) | Structure (SMILES)
0.003317 | O=C1OC(C(O)CO)C(=O)C1=O (stereo not drawn) [Dehydroascorbic acid]
-0.0746 | Nc1ncnc2c1ncn2[C@H]1C[C@H](O)[C@@H](COP(=O)(O)O)O1 [Deoxyadenosine monophosphate]
-0.0001501 | Nc1ccn([C@H]2C[C@H](O)[C@@H](COP(=O)(O)OP(=O)(O)OP(=O)(O)O)O2)c(=O)n1 [Deoxycytidine triphosphate]
0.00577 | O=C(O)CCCCCCCCCCC(=O)O [Dodecanedioic acid]
-0.04113 | CNC[C@H](O)c1ccc(O)c(O)c1 [Epinephrine]
0.0208 | NCCO [Ethanolamine]
-0.03876 | CCC(C(=O)O)C(=O)O [Ethylmalonic acid]
-0.0588 | Cc1cc2nc3c(=O)[nH]c(=O)nc-3n(C[C@H](O)[C@H](O)[C@H](O)COP(=O)(O)OP(=O)(O)OC[C@H]3O[C@@H](n4cnc5c(N)ncnc54)[C@H](O)[C@@H]3O)c2cc1C [Flavin adenine dinucleotide]
-0.02054 | Nc1nc(=O)c2nc(CNc3ccc(C(=O)N[C@@H](CCC(=O)O)C(=O)O)cc3)cnc2[nH]1 [Folic acid]
-0.02052 | OC[C@H]1O[C@H](OC2[C@@H](O)[C@H](O)C(O)[C@H](O)[C@@H]2O)[C@H](O)[C@@H](O)[C@H]1O (stereo partly drawn) [Galactinol]
0.01629 | O=C1O[C@H](CO)[C@@H](O)[C@H](O)[C@H]1O [Glucono delta-lactone]
-0.06864 | O=C(O)CO [Glycolic acid]
-0.02095 | O=CC(=O)O [Glyoxylate]
-0.07145 | Nc1nc2c(ncn2[C@@H]2O[C@H](COP(=O)(O)OP(=O)(O)O)[C@@H](O)[C@H]2O)c(=O)[nH]1 [Guanosine 5-diphosphate]

Continued, compound first:

Structure (SMILES) | log2(corrected fold change)
OC[C@H]1O[C@@H](O[C@H]2[C@H](O)[C@@H](O)[C@H](O)O[C@@H]2CO)[C@H](O)[C@@H](O)[C@H]1O [D-Lactose] | -0.002139
CC(C)C[C@@H](O)C(=O)O [D-Leucic acid] | -0.0302
OC[C@H]1O[C@H](O[C@H]2[C@H](O)[C@@H](O)[C@H](O)O[C@@H]2CO)[C@H](O)[C@@H](O)[C@@H]1O [D-Maltose] | -0.003614
OC[C@H]1OC(O)[C@@H](O)[C@@H](O)[C@@H]1O (stereo partly drawn) [D-Mannose] | -0.01874
OC[C@H]1O[C@H](OC[C@H]2O[C@H](O[C@]3(CO)O[C@H](CO)[C@@H](O)[C@@H]3O)[C@H](O)[C@@H](O)[C@@H]2O)[C@H](O)[C@@H](O)[C@H]1O [D-Raffinose] | -0.02977
O=C[C@H](O)[C@H](O)[C@H](O)CO [D-Ribose] | -0.0769
O=C(O)[C@@H](O)[C@@H](O)[C@H](O)[C@@H](O)C(=O)O [D-Saccharic acid] | -0.01904
O=C(CO)[C@@H](O)[C@H](O)[C@H](O)[C@H](O)COP(=O)(O)O [D-Sedoheptulose 7-phosphate] | -0.01312
N[C@H](CO)C(=O)O [D-Serine] | -0.04824
OC[C@H]1O[C@H](O[C@H]2O[C@H](CO)[C@@H](O)[C@H](O)[C@H]2O)[C@H](O)[C@@H](O)[C@@H]1O [D-Trehalose] | -0.02052
O=C(CO)[C@@H](O)[C@H](O)CO [D-Xylulose] | -0.0769
O=C(O)CC[C@@H](O)C(=O)O [D-alpha-Hydroxyglutaric acid] | -0.0058
O=C(O)[C@@H](O)[C@H](O)[C@H](O)[C@@H](O)C(=O)O [D-galactaric acid] | 0.01388
CCCCCCCCCC(=O)O [Decanoic acid] | 0.004891
Nc1ncnc2c1ncn2[C@H]1C[C@H](O)[C@@H](COP(=O)(O)OP(=O)(O)O)O1 [Deoxyadenosine diphosphate] | -0.1103
O=C(O)CCCC(=O)O [Glutaric acid] | -0.03876

Same assay, conditions: MIDAS screen, sheet eIF2Ba; metabolites screened in pools 1-4; p-value and q-value given

log2(corrected fold change) | Structure (SMILES)
0.08261 | Nc1nc2c(ncn2[C@H]2C[C@H](O)[C@@H](COP(=O)(O)O)O2)c(=O)[nH]1 [Deoxyguanylate]
-0.1841 | CC(C)(COP(=O)(O)OP(=O)(O)OC[C@H]1O[C@@H](n2cnc3c(N)ncnc32)[C@H](O)[C@@H]1O)[C@@H](O)C(=O)NCCC(=O)NCCS [Dephosphocoenzyme A]
-0.1669 | Nc1ncnc2c1ncn2[C@@H]1O[C@H](COP(=O)(O)OP(=O)(O)OP(=O)(O)OC[C@@H]2O[C@H](n3cnc4c(N)ncnc43)[C@@H](O)[C@H]2O)[C@@H](O)[C@H]1O [Diadenosine triphosphate]
-0.03543 | Nc1nc2c(c(=O)[nH]1)N=C(CNc1ccc(C(=O)N[C@@H](CCC(=O)O)C(=O)O)cc1)CN2 [Dihydrofolic acid]
-0.08021 | CC1CNC(=O)NC1=O (stereo not drawn) [Dihydrothymine]
-0.08721 | O=C1CCNC(=O)N1 [Dihydrouracil]
-0.08009 | CN(C)c1ncnc2nc[nH]c12 [Dimethylaminopurine]
-0.4944 | OC[C@@H](O)[C@H](O)[C@H](O)[C@@H](O)CO [Dulcitol]
0.129 | Nc1nc(=O)c2c([nH]1)NC[C@@H](CNc1ccc(C(=O)N[C@@H](CCC(=O)O)C(=O)O)cc1)N2C=O [Folinic acid]
0.1652 | N[C@@H](CCC(=O)N[C@@H](CS)C(=O)O)C(=O)O [Gamma-Glu-Cys]
0.09175 | O=C(CO)COP(=O)(O)O [Glycerone phosphate]
0.1469 | NC(N)=NCC(=O)O [Guanidineacetic acid]
0.2851 | Nc1nc2nc[nH]c2c(=O)[nH]1 [Guanine]
1.415 | Nc1nc2c(ncn2[C@@H]2O[C@H](COP(=O)(O)O)[C@@H](O)[C@H]2O)c(=O)[nH]1 [Guanosine 5-monophosphate]

The next lines start with the compound.

Structure (SMILES) | log2(corrected fold change)
O=P(O)(O)OC[C@H]1OC(O)[C@@H](O)[C@@H](O)[C@@H]1O (stereo partly drawn) [D-Mannose 6-phosphate] | -0.1344
O=C(O)[C@H]1CCCN1 [D-Proline] | -0.05584
O=C1CC[C@H](C(=O)O)N1 [D-Pyroglutamic Acid] | -0.09309
O=P(O)(O)O[C@H]1O[C@H](CO)[C@@H](O)[C@H]1O [D-Ribose 1-phosphate] | 0.3189
O=C[C@H](O)[C@H](O)[C@H](O)COP(=O)(O)O [D-Ribose 5-phosphate] | 0.3189
OC[C@@H](O)[C@@H](O)[C@H](O)[C@@H](O)CO [D-Sorbitol] | 0.05676
O=C(CO)[C@@H](O)[C@@H](O)[C@H](O)COP(=O)(O)O [D-Tagatose 6-phosphate] | -0.01162
O=C[C@H](O)[C@@H](O)[C@H](O)CO [D-Xylose] | -0.1354
O=C(CO)[C@@H](O)[C@H](O)COP(=O)(O)O [D-Xylulose 5-phosphate] | 0.3189
O=P(O)(O)O[C@@H]1[C@H](O)[C@H](O)[C@@H](OP(=O)(O)O)[C@H](OP(=O)(O)O)[C@H]1O [D-myo-Inositol-1,4,5-triphosphate] | 0.2026
